We go through seven molecules from PubChem BioAssay (NCI).

Test systems include MALME-3M melanoma; SNB-75 CNS; HT29 colon; UACC-62 melanoma; HCT-15 colon; MCF7 breast; SK-MEL-2 melanoma; HCC-2998 colon; RPMI-8226 leukemia; SF-295 CNS.
Test in all cases: inhibition of tumour cell growth, NCI panel, 48 h

The structures appear in SMILES notation. Several values for one entry are separate records, joined by “and”; a condition that tells them apart may be missing. Equal values may be shown once.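 Growth conditions: 96-well plates. Treatment: test compound, 48 hours, 5 concentrations. Analysis: linear interpolation between bracketing concentrations; unreached endpoints set to highest concentration. Here, GI50 denotes the concentration required for 50% inhibition of growth. TGI: concentration producing complete growth inhibition.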

On to `OCC1OC(n2cnc3c2NC=NC[C@H]3O)CC1O` (some centres undefined), for which the GI50 is above 588 µM in the assay on MALME-3M melanoma; above 588 µM in the assay with SNB-75 CNS; 469 µM and > 588 µM with HT29 colon; above 588 µM in the assay on UACC-62 melanoma; above 588 µM in the assay on HCT-15 colon; above 588 µM with SK-MEL-2 melanoma. Besides, the GI50 in the assay with HCC-2998 colon, in the assay on RPMI-8226 leukemia and with SF-295 CNS was above 588 µM in each case. In addition, the TGI was 471 µM and > 588 µM in the assay on MALME-3M melanoma; 498 µM and > 588 µM with SNB-75 CNS; 474 µM and > 588 µM with HT29 colon; 461 µM and > 588 µM with UACC-62 melanoma; 500 µM and > 588 µM in the assay with HCT-15 colon; 500 µM in the assay with MCF7 breast. In addition, the TGI in the assay with SK-MEL-2 melanoma is 500 µM and > 588 µM; in the assay with HCC-2998 colon it was 402 µM and > 588 µM; in the assay with RPMI-8226 leukemia, 500 µM and > 588 µM; in the assay on SF-295 CNS, 475 µM and > 588 µM.

As for `Cc1cc(C)c2nc3nc(C)cc(C)c3c(N)c2c1`, the GI50 in the assay with MALME-3M melanoma was 4.19 µM; in the assay with SNB-75 CNS, 4.86 µM; in the assay on HT29 colon, 2.49 µM; in the assay on UACC-62 melanoma, 4.83 µM; in the assay with HCT-15 colon it was 3.96 µM; with MCF7 breast, 3.54 µM. The GI50 is 6.89 µM in the assay on SK-MEL-2 melanoma, 9.61 µM with HCC-2998 colon, 4.55 µM in the assay on RPMI-8226 leukemia and 2.4 µM in the assay on SF-295 CNS. For the same molecule, the TGI was 16.6 µM in the assay on MALME-3M melanoma; 18.3 µM in the assay on SNB-75 CNS; 13.6 µM in the assay with HT29 colon; 18.9 µM in the assay on UACC-62 melanoma; 22.5 µM in the assay with HCT-15 colon; 16.7 µM in the assay with MCF7 breast. The TGI in the assay on SK-MEL-2 melanoma is 21.7 µM; in the assay on HCC-2998 colon, 22.5 µM; in the assay with RPMI-8226 leukemia it was 24.8 µM; with SF-295 CNS it was 12 µM.

As to `O=S(=O)(CCNCc1ccc(-c2ccc3ncnc(Nc4ccc(OCc5cccc(F)c5)c(Cl)c4)c3c2)o1)c1ccccc1`, the GI50 in the assay on MALME-3M melanoma, in the assay on SNB-75 CNS, with HT29 colon, in the assay with UACC-62 melanoma, in the assay with HCT-15 colon and in the assay with MCF7 breast was above 25 µM each time. The GI50 in the assay with SK-MEL-2 melanoma, in the assay with HCC-2998 colon, in the assay with RPMI-8226 leukemia and in the assay on SF-295 CNS was above 25 µM in each case. Moreover, the TGI with MALME-3M melanoma, in the assay with SNB-75 CNS, in the assay on HT29 colon, in the assay with UACC-62 melanoma, in the assay with HCT-15 colon and with MCF7 breast was above 25 µM in each case. Besides, the TGI in the assay with SK-MEL-2 melanoma, with HCC-2998 colon, with RPMI-8226 leukemia and in the assay on SF-295 CNS was above 25 µM in each case.

As for `CCN(CC)CCCCNc1ncc2cc(-c3cc(OC)cc(OC)c3)c(NC(=O)NC(C)(C)C)nc2n1`, the GI50 in the assay on MALME-3M melanoma was 1.96 µM; with SNB-75 CNS, 0.372 µM; in the assay on HT29 colon it was 3.31 µM; with UACC-62 melanoma it was 4.2 µM; in the assay with HCT-15 colon, 3.63 µM; in the assay on MCF7 breast it was 5.35 µM. The GI50 is 3.67 µM in the assay on SK-MEL-2 melanoma, 12.7 µM in the assay with HCC-2998 colon, 4.92 µM in the assay on RPMI-8226 leukemia and 3.59 µM with SF-295 CNS. For the same molecule, the TGI in the assay on MALME-3M melanoma is 4.17 µM; with SNB-75 CNS, 13.1 µM; with HT29 colon, 13.9 µM; in the assay on UACC-62 melanoma, 15.1 µM; in the assay with HCT-15 colon, 17.5 µM; in the assay with MCF7 breast, 23.1 µM. In addition, the TGI came out at 13 µM with SK-MEL-2 melanoma, 26 µM with HCC-2998 colon, 27.9 µM in the assay with RPMI-8226 leukemia and 10.3 µM with SF-295 CNS.

On to `S=C(c1ccc2c(c1)OCO2)N1CCN(c2cccc(Cl)c2)CC1`, for which the GI50 with MALME-3M melanoma is 0.478 µM; in the assay on SNB-75 CNS, 0.572 µM; with HT29 colon, 0.406 µM; in the assay with UACC-62 melanoma it was 0.429 µM; in the assay with HCT-15 colon, 0.524 µM; with MCF7 breast, 0.471 µM. The GI50 in the assay with SK-MEL-2 melanoma was above 100 µM; with HCC-2998 colon, 1.27 µM; with RPMI-8226 leukemia, 0.598 µM; in the assay on SF-295 CNS it was 0.387 µM. Besides, the TGI in the assay on MALME-3M melanoma was above 100 µM; with SNB-75 CNS, above 27.4 µM; in the assay on HT29 colon it was above 100 µM; with UACC-62 melanoma it was above 100 µM; in the assay on HCT-15 colon it was above 69.3 µM; in the assay on MCF7 breast it was above 100 µM. Besides, the TGI in the assay with SK-MEL-2 melanoma is above 100 µM; with HCC-2998 colon, 16.4 µM; in the assay on RPMI-8226 leukemia, above 100 µM; in the assay on SF-295 CNS, above 40.9 µM.

For `CCN(CC)CCCC(Cc1ccccc1)Nc1c2ccc(Cl)cc2nc2ccc(OC)cc12` (centres undefined), the GI50 in the assay with MALME-3M melanoma was 2.02 µM; with SNB-75 CNS, 1.62 µM; with HT29 colon it was 1.41 µM; in the assay with UACC-62 melanoma, 1.95 µM; in the assay with HCT-15 colon, 1.88 µM; with MCF7 breast it was 1.54 µM. Further, the GI50 with SK-MEL-2 melanoma was 1.79 µM; with HCC-2998 colon it was 1.61 µM; with RPMI-8226 leukemia, 2.08 µM; with SF-295 CNS, 1.86 µM. Further, the TGI in the assay with MALME-3M melanoma came to 3.6 µM; in the assay on SNB-75 CNS it was 3.65 µM; in the assay on HT29 colon, 3.57 µM; in the assay on UACC-62 melanoma, 3.64 µM; with HCT-15 colon it was 4.72 µM; in the assay on MCF7 breast it was 3.35 µM. In addition, the TGI turned out to be 3.46 µM with SK-MEL-2 melanoma, 3.3 µM in the assay with HCC-2998 colon, 5.26 µM in the assay with RPMI-8226 leukemia and 3.55 µM in the assay on SF-295 CNS.

Take `COc1ccc(OC)c(/C=C2\COc3ccc(O)c(O)c3C2=O)c1`: the GI50 in the assay with MALME-3M melanoma was 2.1 µM; in the assay on SNB-75 CNS, 3.72 µM; in the assay on HT29 colon it was 2.68 µM; with UACC-62 melanoma, 1.79 µM; in the assay on HCT-15 colon it was 1.3 µM; in the assay on MCF7 breast, 1.2 µM. The GI50 in the assay with SK-MEL-2 melanoma was 2.84 µM; in the assay on HCC-2998 colon, 1.88 µM; with RPMI-8226 leukemia it was 0.751 µM; in the assay on SF-295 CNS, 4.29 µM. For the same molecule, the TGI with MALME-3M melanoma is 6.58 µM; in the assay on SNB-75 CNS, 18.3 µM; with HT29 colon it was 6.6 µM; with UACC-62 melanoma it was 4.51 µM; in the assay on HCT-15 colon, 6.5 µM; with MCF7 breast, 14.4 µM. Moreover, the TGI is 8.44 µM in the assay with SK-MEL-2 melanoma, 3.48 µM in the assay on HCC-2998 colon, 6.12 µM in the assay with RPMI-8226 leukemia and 15.5 µM in the assay on SF-295 CNS.
